Results reported in article PMC8621101, “Inhibition of XPO-1 Mediated Nuclear Export through the Michael-Acceptor Character of Chalcones” (Pharmaceuticals, 2021).

Tests used:
[1] = target: T1, XPO1 (Jurkat XPO1^WT) (Homo sapiens, UniProt O14980); test: RanBP1 immunofluorescence (XPO1-mediated nuclear export) in wild-type Jurkat cells; assay type: cell-based; conditions: 3 h; for Subcellular localization of RanBP1, wild-type Jurkat: compound at 4 μM; for IC50: nuclear export of RanBP1 cargo, wild-type Jurkat, mean ± SD of two independent experiments, read-out: IC50 XPO1 inhibition Jurkat XPO1^WT
T1 construct: RanBP1 immunofluorescence staining was performed on both wild type and mutant XPO1^C528S Jurkat cells; endogenous in cells; host or cells: wild-type Jurkat leukemia cells
Procedure: (§1) The effect of the mutation on the activity of the inhibitors was assessed by the visualization of the subcellular localization of the XPO1 cargo RanBP1.
(§2) Stably transfected HeLa NLSSV40-AcGFP-NESPKI were cultured as described in Vercruysse et al.
(§3) Cells were harvested at 400× g, washed in PBS and then transferred into an 8-well µ-Slide (Ibidi) pretreated with 0.1% (w/v) poly-L-lysine (Sigma). Cells were allowed to adhere to the slides and then subsequently fixed (4% PFA in PBS), washed and permeabilized (0.2% Triton X-100 in PBS). Further immunofluorescence staining was then performed according to standard procedures. Employed antibodies were rabbit anti-RanBP1 (ab97659, Abcam, Cambridge, UK) at a 1:500 dilution and secondary Alexa Fluor 488 goat anti-rabbit antibody (A11008, Invitrogen, ThermoFisher Scientific). Cell nuclei were counterstained with DAPI, and the samples were imaged by confocal microscopy on a Leica TCS SP5 confocal microscope (Leica Microsystems, Weitzlar, Germany), employing a HCX PL APO 63× (NA 1.2) water immersion objective. Subsequently, fluorescence was read on an ArrayScan XTI High Content Reader (Thermo Fisher Scientific, Waltham, MA, USA). Nuclear and cytoplasmic compartments were segmented, and their average pixel intensities in the green channel were quantitated similarly as for the XPO1 phenotypic reporter assay.

[2] = system: HCT-116 cells; test: Cell proliferation assay (IncuCyte confluence), HCT-116; assay type: cell-based; conditions: Homo sapiens; HCT-116 colorectal carcinoma; 72 h; mean of two independent experiments ± SEM; read-out: IC50 antiproliferative activity HCT-116
Procedure: (§4) Cancer cell lines HCT-116, NCI-H460, HL-60, K-562 and Z-138 were acquired from the American Type Culture Collection (ATCC, Manassas, VA, USA). The DND-41 cell line was purchased from the Deutsche Sammlung von Mikroorganismen und Zellkulturen (DSMZ Leibniz-Institut, Brunswick, Germany), and the HAP-1 cell line was ordered from Horizon Discovery (Horizon Discovery Group, Water Beach, UK). All cell lines were cultured as recommended by the suppliers. Culture media were purchased from Gibco Life Technologies and supplemented with 10% fetal bovine serum (HyClone, GE Healthcare Life Sciences, Chicago, Illinois, USA).
(§5) Adherent cell lines HCT-116, NCI-H460 and Hap-1 cells were seeded at a density between 500 and 1500 cells per well in 384-well tissue culture plates (Greiner). After overnight incubation, cells were treated with different concentrations of the test compounds. Suspension cell lines HL-60, K-562, Z-138 and DND-41 were seeded at densities ranging from 2500 to 5500 cells per well in 384-well culture plates containing the test compounds at the same concentration points.

[3] = system: Z-138 cells; test: Cell proliferation assay (IncuCyte confluence), Z-138; assay type: cell-based; conditions: Homo sapiens; Z-138 non-Hodgkin lymphoma; 72 h; mean of two independent experiments ± SEM; read-out: IC50 antiproliferative activity Z-138
Procedure: as §4, §5

[4] = system: Hap-1 cells; test: Cell proliferation assay (IncuCyte confluence), Hap-1; assay type: cell-based; conditions: Homo sapiens, HAP1; Hap-1 chronic myeloid leukemia; 72 h; mean of two independent experiments ± SEM; read-out: IC50 antiproliferative activity Hap-1
Procedure: as §4, §5

[5] = target: T2, XPO1^C528S (Jurkat XPO1^C528S) (Homo sapiens, UniProt O14980, C528S); test: RanBP1 immunofluorescence (XPO1-mediated nuclear export) in mutant XPO1^C528S Jurkat cells; assay type: cell-based; conditions: for Subcellular localization of RanBP1, mutant XPO1^C528S Jurkat: compound at 4 μM; for Subcellular localization of RanBP1, mutant XPO1^C528S Jurkat / IC50: 3 h; for XPO1 inhibitory activity against Jurkat XPO1^C528S, in words / IC50: mutant XPO1^C528S Jurkat; for IC50: nuclear export of RanBP1 cargo, mean ± SD of two independent experiments, read-out: IC50 XPO1 inhibition Jurkat XPO1^C528S
T2 construct: CRISPR/Cas9 genome editing of the Jurkat cell line was performed as in Neggers et al. [43] to generate a XPO1^C528S mutant cell line; endogenous in cells; host or cells: Jurkat cells genome-edited by CRISPR/Cas9 at the XPO1 locus (XPO1^C528S)
T2 sequence (O14980 whole entry C528S): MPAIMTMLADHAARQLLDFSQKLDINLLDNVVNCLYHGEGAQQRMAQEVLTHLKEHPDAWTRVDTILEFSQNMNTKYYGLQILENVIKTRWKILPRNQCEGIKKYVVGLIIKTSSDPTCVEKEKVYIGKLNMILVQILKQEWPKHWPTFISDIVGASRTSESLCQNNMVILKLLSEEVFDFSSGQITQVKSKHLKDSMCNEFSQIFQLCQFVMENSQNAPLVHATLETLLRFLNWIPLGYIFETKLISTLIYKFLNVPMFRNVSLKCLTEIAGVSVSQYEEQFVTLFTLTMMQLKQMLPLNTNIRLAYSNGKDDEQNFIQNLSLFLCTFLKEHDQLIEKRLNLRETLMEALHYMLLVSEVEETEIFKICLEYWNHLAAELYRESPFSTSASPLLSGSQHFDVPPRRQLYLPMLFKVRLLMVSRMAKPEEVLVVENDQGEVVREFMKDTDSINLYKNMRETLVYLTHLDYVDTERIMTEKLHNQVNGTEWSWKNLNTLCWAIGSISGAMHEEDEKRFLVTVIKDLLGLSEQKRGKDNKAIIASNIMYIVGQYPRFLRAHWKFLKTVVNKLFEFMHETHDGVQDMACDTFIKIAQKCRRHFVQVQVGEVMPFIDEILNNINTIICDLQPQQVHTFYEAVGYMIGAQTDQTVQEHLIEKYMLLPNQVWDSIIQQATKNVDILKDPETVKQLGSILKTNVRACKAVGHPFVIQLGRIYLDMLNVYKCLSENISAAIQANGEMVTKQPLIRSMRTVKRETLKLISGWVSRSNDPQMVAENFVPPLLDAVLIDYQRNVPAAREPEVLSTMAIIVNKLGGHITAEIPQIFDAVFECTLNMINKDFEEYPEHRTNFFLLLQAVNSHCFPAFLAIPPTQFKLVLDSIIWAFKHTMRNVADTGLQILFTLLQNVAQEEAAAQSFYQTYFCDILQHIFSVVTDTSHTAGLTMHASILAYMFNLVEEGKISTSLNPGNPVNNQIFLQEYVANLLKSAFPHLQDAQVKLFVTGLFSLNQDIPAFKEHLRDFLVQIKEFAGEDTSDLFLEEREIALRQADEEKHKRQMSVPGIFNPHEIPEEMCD
Procedure: as §1, §2, §3

[6] = system: HL-60 cells; test: Cell proliferation assay (IncuCyte confluence), HL-60; assay type: cell-based; conditions: Homo sapiens; HL-60 acute myeloid leukemia; 72 h; mean of two independent experiments ± SEM; read-out: IC50 antiproliferative activity HL-60
Procedure: as §4, §5

COc1cc(OC)cc(C(=O)/C=C/c2cncnc2)c1 [Compound 10, (E)-1-(3′,5′-Dimethoxyphenyl)-3-(pyrimidin-5′’-yl)prop-2-en-1-one]
melting point: 184 to 185 °C
Subcellular localization of RanBP1, wild-type Jurkat [1]: RanBP1 accumulated in the nucleus
IC50 [1]: 0.3 ± 0.3 µM
IC50 [2]: 4.7 ± 1.7 µM
IC50 [3]: 0.5 ± 0.05 µM
IC50 [4]: 2.1 ± 0.2 µM
Subcellular localization of RanBP1, mutant XPO1^C528S Jurkat [5]: its nuclear export was not inhibited
XPO1 inhibitory activity against Jurkat XPO1^C528S, in words [5]: lost their inhibitory activity
IC50 [5]: > 5 µM
IC50 [6]: 2.2 ± 0.3 µM

O=C(/C=C/c1cncnc1)c1ccc2ccccc2c1 [Compound 9, (E)-1-(Naphthalen-2-yl)-3-(pyrimidin-5-yl)prop-2-en-1-one]
melting point: 175 to 177 °C
Subcellular localization of RanBP1, wild-type Jurkat [1]: RanBP1 accumulated in the nucleus
IC50 [1]: 2.2 ± 0.03 µM
IC50 [2]: 2.4 ± 0.2 µM
IC50 [3]: 1.8 ± 0.05 µM
IC50 [4]: 2.3 ± 0.2 µM
Subcellular localization of RanBP1, mutant XPO1^C528S Jurkat [5]: its nuclear export was not inhibited
XPO1 inhibitory activity against Jurkat XPO1^C528S, in words [5]: lost their inhibitory activity
IC50 [5]: > 5 µM
IC50 [6]: 2 ± 0.5 µM
